From US4859663A, “Multiply substituted pyridine 1-oxide compounds which are useful in treating brain disorders” (Hoechst Aktiengesellschaft, priority 1985, dated 1989)
Read-outs that look alike come from different tables or passages of the source.

Key:
[1] = test system: anesthetized male rats; test: EEG hypoxia-tolerance test (antihypoxic / cerebroprotective action); format: in vivo, rat; settings: ip, read-out: % change in the EEG-RL (EEG hypoxia recovery latency period); for change in vivo at 25 mg/kg: 25 mg/kg i.p.
Protocol: The compounds according to the invention were tested for a cerebroprotective action towards damage caused by hypoxia by means of the EEG hypoxia-tolerance test (EEG: Electroencephalogram) comparing with the most important representatives of types of compounds which belong to the state of the art. In this method, anesthetized male rats with implanted EEG electrodes are subjected to progressive hypoxia by passing nitrogen into a chamber. […] The criterion used for assessment of an antihypoxic action is the EEG hypoxia recovery latency period (EEG-RL), which is defined as the time from the opening of the chamber after onset of EEG silence until the first signals appear again. […] The compounds according to the invention were administered intraperitoneally 15 minutes before the start of hypoxia. The group size was n =8.

[2] = Acute toxicity (LD50); settings: in vivo, mouse, mortality within 7 days
Text: 2. Acute toxicity The standard method for the determination of the LD50 values or LD50 ranges via the mortality occurring in Naval Medical Research Institute mice within 7 days after a single intravenous (i.v.), intraperitoneal (i.p.) or oral (p.o.) administration was used.

[3] = test system: naive mice of the male sex; test: Scopolamine-induced retrograde amnesia in the passive avoidance test; format: in vivo, mouse; settings: for minimal effective dose: read-out: minimal effective dose (MED) countering scopolamine
Protocol: (a) Effect on the scopolamine-induced retrograde amnesia in the passive avoidance test
The test arrangement comprises a light/dark box with an electrifiable mesh floor in the dark section. 90 minutes after administration of placebo and product, naive mice of the male sex are treated subcutaneously with scopolamine hydrobromide (3 mg/kg). The mice are placed in the light section of the box 5 minutes later. After transferring into the dark section they receive there an electric shock to the feet which produces an unpleasant sensation. 24 hours thereafter, each mouse is placed once in the light section of the test apparatus, and the residence time (max. 180 seconds) is measured. […] The significant action of a test substance is calculated, using a median test, by comparison with the control group. The minimal effective dose (MED) of a product is regarded as that which results in a significant action countering scopolamine.

[4] = test system: rat; test: Gamma-butyrolactone test on the rat (EEG); format: in vivo
Text: (b) Gamma-butyrolactone test on the rat
It is known from the literature (L.I. Wolfson et al., J. Neurochem. 29, 777 (1977)) that gamma-butyrolactone (GBL), inter alia, induces metabolic disturbances in the brain which can be followed by changes in the EEG. The compounds of the formula I are able to antagonize this action of GBL on the EEG.

[5] = rat, 15 minutes before hypoxia, n = 8, vs untreated control, shortening (negative) = protective
[6] = rat, 50 mg/kg i.p., 15 minutes before hypoxia, n = 8, vs untreated control, shortening (negative) = protective

Compound	change in vivo at 25 mg/kg [1, 5]	LD50 at 168 h ([2]; iv, single i.v. administration)	other results
Cc1cc(N2CCOCC2)c([N+](=O)[O-])c(C)[n+]1[O-] [Example 5, 2,6-Dimethyl-4-(4-morpholinyl)-3-nitropyridine 1-oxide]	-16%	> 200 mg/kg	
Cc1cc(N2CCSCC2)c(C#N)c(C)[n+]1[O-].Cl [Example 1, 3-Cyano-2,6-dimethyl-4-(4-thiomorpholinyl)pyridine 1-oxide hydrochloride]	-50%	135 mg/kg	LD50 at 168 h ([2]; po, single p.o. administration): 1190 mg/kg; minimal effective dose ([3]; mouse, oral, 90 minutes before scopolamine 3 mg/kg s.c.): 25 mg/kg; effectiveness relative to piracetam (from MED) ([3]; mouse, oral, passive avoidance): four times as effective as piracetam; protective action against GBL-induced EEG changes ([4]; 100 and 200 mg/kg i.p.): strong, dose-dependent protective action; protective action against GBL compared with piracetam ([4]; i.p.): far exceeded that of the comparison product piracetam
Cc1cc(N2CCCCC2)c(C#N)c(C)[n+]1[O-] [Example 14]		100 to 200 mg/kg	change in vivo at 50 mg/kg [1, 6]: -44%
Cc1cc(N2CCCCCC2)c(C#N)c(C)[n+]1[O-] [Example 22]	-38%	50 to 100 mg/kg	
Cc1cc(N2CCCCC2)c([N+](=O)[O-])c(C)[n+]1[O-] [Example 28]	-12%	100 to 200 mg/kg	
Cc1cc(N2CCSCC2)c(C#N)c(C)n1 [3-Cyano-2,6-dimethyl-4-(4-thiomorpholinyl)pyridine, reference compound]			LD50 at 168 h ([2]; ip, single i.p. administration): 150 to 300 mg/kg
Cc1cc(N2CCCC2)c(C#N)c(C)[n+]1[O-] [Example 13]		200 mg/kg	change in vivo at 50 mg/kg [1, 6]: -32%
Cc1cc(N2CCCNCC2)c([N+](=O)[O-])c(C)[n+]1[O-] [Example 11]		200 mg/kg	change in vivo at 50 mg/kg ([1]; Rattus norvegicus): -23%
Cc1cc(N2CCN(c3ccc(F)cc3)CC2)c([N+](=O)[O-])c(C)[n+]1[O-] [Example 26]	-27%	200 mg/kg	
NC(=O)CN1CCCC1=O [piracetam, 2-oxo-1-pyrrolidineacetamide, reference compound]			minimal effective dose ([3]; Mus musculus, po): 100 mg/kg
c1ccc(Oc2cccnc2)cc1 [3-Phenoxypyridine, reference compound]	-14%		LD50 at 168 h ([2]; po, single p.o. administration): 400 to 630 mg/kg
COC(=O)c1c(C)nc(C)c(C#N)c1-c1ccccc1[N+](=O)[O-] [Methyl 3-cyano-2,6-dimethyl-4-(2-nitrophenyl)pyridine-5-carboxylate, reference compound]		50 to 100 mg/kg	change in vivo at 50 mg/kg [1, 6]: 16%
